Values quoted from earlier work, collected in US8227599B2, “Adsorbents comprising anthraquinone dye-ligends for the separation of biological materials” (BASF SE, priority 2005, dated 2012).

System: Aspergillus terreus NADP-glutamate Dehydrogenase

In the case of `Nc1c(S(=O)(=O)[O-])cc(Nc2ccc(Nc3nc(Cl)nc(Nc4ccccc4S(=O)(=O)[O-])n3)c(S(=O)(=O)[O-])c2)c2c1C(=O)c1ccccc1C2=O.[Na+].[Na+].[Na+]` [Cibacron Blue 3GA], the “Binding of NADP-GDH to the dye” value is listed as “does not bind”.
